This experiment has as its target T1, p-AXL (Homo sapiens, UniProt P30530).
T1 construct: expressed in transfected cells; host or cells: HEK293T
T1 sequence (P30530 26-894): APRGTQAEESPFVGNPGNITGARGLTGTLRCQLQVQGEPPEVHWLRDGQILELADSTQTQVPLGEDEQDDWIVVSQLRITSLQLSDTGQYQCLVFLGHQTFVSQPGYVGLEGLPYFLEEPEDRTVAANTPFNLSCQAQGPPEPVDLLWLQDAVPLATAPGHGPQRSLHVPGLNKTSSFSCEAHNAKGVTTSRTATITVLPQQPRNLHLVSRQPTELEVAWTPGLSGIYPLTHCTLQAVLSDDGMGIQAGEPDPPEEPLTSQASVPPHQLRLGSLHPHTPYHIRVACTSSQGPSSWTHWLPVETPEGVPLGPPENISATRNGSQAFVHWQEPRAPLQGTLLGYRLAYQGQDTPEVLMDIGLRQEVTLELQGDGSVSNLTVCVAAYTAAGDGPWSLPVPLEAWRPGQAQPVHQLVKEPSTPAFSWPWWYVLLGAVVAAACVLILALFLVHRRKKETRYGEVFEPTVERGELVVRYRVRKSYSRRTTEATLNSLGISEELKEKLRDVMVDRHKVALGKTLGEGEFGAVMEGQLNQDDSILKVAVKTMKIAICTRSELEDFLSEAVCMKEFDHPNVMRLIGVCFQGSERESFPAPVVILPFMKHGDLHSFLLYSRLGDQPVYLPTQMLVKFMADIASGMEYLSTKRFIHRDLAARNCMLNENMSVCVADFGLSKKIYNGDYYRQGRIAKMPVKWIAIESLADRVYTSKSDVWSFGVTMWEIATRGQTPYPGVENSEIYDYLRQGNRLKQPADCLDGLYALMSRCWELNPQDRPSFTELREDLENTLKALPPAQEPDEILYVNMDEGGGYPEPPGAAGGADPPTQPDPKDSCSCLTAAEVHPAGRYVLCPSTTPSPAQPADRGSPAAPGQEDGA
In words: Axl phosphorylation inhibition ELISA in HEK293T cells transfected with NanoLuc-tagged AXL. The experiment is classed as cell-based. Conditions: 1 h compound incubation, media (OptiMEM). The procedure, abridged:
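HEK293T cells transiently transfected one day earlier with NanoLuc-tagged AXL were exposed to 22-point 2-fold compound dilutions for 1 h at 37° C (70,000 cells/well), then lysed. Lysates captured on anti-phospho-tyrosine coated plates for 2 h; bound p-AXL read by NanoLuc luminescence; IC50 from 4-parameter logistic fit.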
(In an ELISA, binding on a coated surface is turned into a signal by an enzyme label.)

One may read the IC50 as the concentration that inhibits the measured activity by half. Low values mean greater potency, high ones weaker potency. Molecule `Cc1ccc(C)c(-c2ccc(-c3n[nH]c4ncc(-c5ccc6c(c5)CC[C@@H](N5C7COCC5C7)CC6)cc34)cc2)n1` [Example 120, 6-[(7S)-2-{3-[4-(3,6-Dimethylpyridin-2-yl)phenyl]-1H-pyrazolo[3,4-b]pyridin-5-yl}-6,7,8,9-tetrahydro-5H-benzo[7]annulen-7-yl]-3-oxa-6-azabicyclo[3.1.1]heptane] had an IC50 of less than 0.1 µM.

On to `O=C1OCCN1c1cccnc1-c1ccc(-c2n[nH]c3ncc(-c4ccc5c(c4)CC[C@@H](N4C6COCC4C6)CC5)cc23)cc1` [Example 121, 3-[2-(4-{5-[(7S)-7-{3-Oxa-6-azabicyclo[3.1.1]heptan-6-yl}-6,7,8,9-tetrahydro-5H-benzo[7]annulen-2-yl]-1H-pyrazolo[3,4-b]pyridin-3-yl}phenyl)pyridin-3-yl]-1,3-oxazolidin-2-one], for which the IC50 is less than 0.1 µM. With `Cc1ncc(C)c(-c2ccc(-c3n[nH]c4ncc(-c5ccc6c(c5)CC[C@@H](N5C7COCC5C7)CC6)cc34)cc2)n1` [Example 122, 6-[(7S)-2-{3-[4-(2,5-Dimethylpyrimidin-4-yl)phenyl]-1H-pyrazolo[3,4-b]pyridin-5-yl}-6,7,8,9-tetrahydro-5H-benzo[7]annulen-7-yl]-3-oxa-6-azabicyclo[3.1.1]heptane], the IC50 is less than 0.1 µM. Molecule `Cc1ncc(C)c(-c2ccc(-c3c[nH]c4ncc(-c5ccc6c(c5)CC[C@@H](N5C7COCC5C7)CC6)cc34)cc2)n1` [Example 123, 6-[(7S)-2-{3-[4-(2,5-Dimethylpyrimidin-4-yl)phenyl]-1H-pyrrolo[2,3-b]pyridin-5-yl}-6,7,8,9-tetrahydro-5H-benzo[7]annulen-7-yl]-3-oxa-6-azabicyclo[3.1.1]heptane] returned an IC50 of less than 0.1 µM. The molecule `C[C@@H]1COC(=O)N1c1cccnc1-c1ccc(-c2n[nH]c3ncc(-c4ccc5c(c4)CC[C@@H](N4C6COCC4C6)CC5)cc23)cc1` [Example 124, (4R)-4-Methyl-3-[2-(4-{5-[(7S)-7-{3-oxa-6-azabicyclo[3.1.1]heptan-6-yl}-6,7,8,9-tetrahydro-5H-benzo[7]annulen-2-yl]-1H-pyrazolo[3,4-b]pyridin-3-yl}phenyl)pyridin-3-yl]-1,3-oxazolidin-2-one] registered an IC50 of less than 0.1 µM. Take `C[C@H]1COC(=O)N1c1cccnc1-c1ccc(-c2n[nH]c3ncc(-c4ccc5c(c4)CC[C@@H](N4C6COCC4C6)CC5)cc23)cc1` [Example 125, (4S)-4-Methyl-3-[2-(4-{5-[(7S)-7-{3-oxa-6-azabicyclo[3.1.1]heptan-6-yl}-6,7,8,9-tetrahydro-5H-benzo[7]annulen-2-yl]-1H-pyrazolo[3,4-b]pyridin-3-yl}phenyl)pyridin-3-yl]-1,3-oxazolidin-2-one]: the IC50 is less than 0.1 µM.

Regarding `O=C1CCCCN1c1cccnc1-c1ccc(-c2n[nH]c3ncc(-c4ccc5c(c4)CC[C@@H](N4C6COCC4C6)CC5)cc23)cc1` [Example 127, 1-[2-(4-{5-[(7S)-7-{3-Oxa-6-azabicyclo[3.1.1]heptan-6-yl}-6,7,8,9-tetrahydro-5H-benzo[7]annulen-2-yl]-1H-pyrazolo[3,4-b]pyridin-3-yl}phenyl)pyridin-3-yl]piperidin-2-one], the IC50 was less than 0.1 µM. The molecule `CN(C(=O)C1CC1)c1cccnc1-c1ccc(-c2n[nH]c3ncc(-c4ccc5c(c4)CC[C@@H](N4C6COCC4C6)CC5)cc23)cc1` [Example 128, N-Methyl-N-[2-(4-{5-[(7S)-7-{3-oxa-6-azabicyclo[3.1.1]heptan-6-yl}-6,7,8,9-tetrahydro-5H-benzo[7]annulen-2-yl]-1H-pyrazolo[3,4-b]pyridin-3-yl}phenyl)pyridin-3-yl]cyclopropanecarboxamide] yielded an IC50 of less than 0.1 µM. As for `Cc1cccnc1-c1ccc(-c2n[nH]c3ncc(-c4ccc5c(c4)CC[C@@H](N[C@H]4CCCOC4)CC5)cc23)cc1` [Example 129, (3S)—N-[(7S)-2-{3-[4-(3-Methylpyridin-2-yl)phenyl]-1H-pyrazolo[3,4-b]pyridin-5-yl}-6,7,8,9-tetrahydro-5H-benzo[7]annulen-7-yl]oxan-3-amine], the IC50 was less than 0.1 µM.

As to `Cc1cccnc1-c1ccc(-c2n[nH]c3ncc(-c4ccc5c(c4)CC[C@@H](N4C[C@@H]6C[C@H]4CO6)CC5)cc23)cc1` [Example 130, (1S,4S)-5-[(7S)-2-{3-[4-(3-Methylpyridin-2-yl)phenyl]-1H-pyrazolo[3,4-b]pyridin-5-yl}-6,7,8,9-tetrahydro-5H-benzo[7]annulen-7-yl]-2-oxa-5-azabicyclo[2.2.1]heptane], the IC50 is less than 0.1 µM. `CO[C@H]1C[C@@H](N[C@H]2CCc3ccc(-c4cnc5[nH]nc(-c6ccc(-c7ncccc7C)cc6)c5c4)cc3CC2)C1` [Example 131, (7S)-2-{3-[4-(3-Methylpyridin-2-yl)phenyl]-1H-pyrazolo[3,4-b]pyridin-5-yl}-N-[cis-3-methoxycyclobutyl]-6,7,8,9-tetrahydro-5H-benzo[7]annulen-7-amine] showed an IC50 of 0.1 to 1 µM.

`COC[C@H]1CCN([C@H]2CCc3ccc(-c4cnc5[nH]nc(-c6ccc(-c7ncccc7C)cc6)c5c4)cc3CC2)C1` [Example 132, 2-(4-{5-[(7S)-7-[(3S)-3-(Methoxymethyl)pyrrolidin-1-yl]-6,7,8,9-tetrahydro-5H-benzo[7]annulen-2-yl]-1H-pyrazolo[3,4-b]pyridin-3-yl}phenyl)-3-methylpyridine] gave an IC50 of less than 0.1 µM. In turn, `c1ccc(-c2ccc(-c3n[nH]c4ncc(-c5ccc6c(c5)CC[C@@H](N5C7COCC5C7)CC6)cc34)cc2)nc1` [Example 154, 6-[(7S)-2-{3-[4-(Pyridin-2-yl)phenyl]-2H-pyrazolo[3,4-b]pyridin-5-yl}-6,7,8,9-tetrahydro-5H-benzo[7]annulen-7-yl]-3-oxa-6-azabicyclo[3.1.1]heptane] showed an IC50 of less than 0.1 µM. Then `c1ccc(-c2ccc(-c3c[nH]c4ncc(-c5ccc6c(c5)CC[C@@H](N5C7COCC5C7)CC6)cc34)cc2)nc1` [Example 155, 6-[(7S)-2-{3-[4-(Pyridin-2-yl)phenyl]-1H-pyrrolo[2,3-b]pyridin-5-yl}-6,7,8,9-tetrahydro-5H-benzo[7]annulen-7-yl]-3-oxa-6-azabicyclo[3.1.1]heptane], with 0.1 to 1 µM; and `C[C@@H]1CCCN1[C@@]1(C)CCc2ccc(-c3cnc4[nH]cc(-c5ccc(-c6ccccn6)cc5)c4c3)cc2CC1` [Example 156, 2-(4-{5-[(7S)-7-Methyl-7-[(2R)-2-methylpyrrolidin-1-yl]-6,7,8,9-tetrahydro-5H-benzo[7]annulen-2-yl]-1H-pyrrolo[2,3-b]pyridin-3-yl}phenyl)pyridine], with 0.1 to 1 µM. `c1cncc(-c2ccc(-c3c[nH]c4ncc(-c5ccc6c(c5)CC[C@@H](N5C7COCC5C7)CC6)cc34)cc2)c1` [Example 158, 6-[(7S)-2-{3-[4-(Pyridin-3-yl)phenyl]-1H-pyrrolo[2,3-b]pyridin-5-yl}-6,7,8,9-tetrahydro-5H-benzo[7]annulen-7-yl]-3-oxa-6-azabicyclo[3.1.1]heptane] returned a half-inhibitory concentration (IC50) of 0.1 to 1 µM. Regarding `Cc1cc(-c2n[nH]c3ncc(-c4ccc5c(c4)CC[C@@H](N4C6COCC4C6)CC5)cc23)ccc1-c1ccccn1` [Example 159, 6-[(7S)-2-{3-[3-Methyl-4-(pyridin-2-yl)phenyl]-2H-pyrazolo[3,4-b]pyridin-5-yl}-6,7,8,9-tetrahydro-5H-benzo[7]annulen-7-yl]-3-oxa-6-azabicyclo[3.1.1]heptane], the IC50 fell in the range of 0.1 to 1 µM. In the case of `Cc1cccnc1-c1ccc(-c2n[nH]c3ncc(-c4ccc5c(c4)CC[C@@](C)(N4CCC[C@H]4C)CC5)cc23)cc1` [Example 163, 3-Methyl-2-(4-{5-[(7S)-7-methyl-7-[(2R)-2-methylpyrrolidin-1-yl]-6,7,8,9-tetrahydro-5H-benzo[7]annulen-2-yl]-2H-pyrazolo[3,4-b]pyridin-3-yl}phenyl)pyridine], the IC50 is less than 0.1 µM.

As to `COc1cccnc1-c1ccc(-c2c[nH]c3ncc(-c4ccc5c(c4)CC[C@@H](N4C6COCC4C6)CC5)cc23)cc1` [Example 164, 6-[(7S)-2-{3-[4-(3-Methoxypyridin-2-yl)phenyl]-1H-pyrrolo[2,3-b]pyridin-5-yl}-6,7,8,9-tetrahydro-5H-benzo[7]annulen-7-yl]-3-oxa-6-azabicyclo[3.1.1]heptane], the IC50 is less than 0.1 µM. Turning to `CN(C)C(=O)c1cccnc1-c1ccc(-c2c[nH]c3ncc(-c4ccc5c(c4)CC[C@@H](N4C6COCC4C6)CC5)cc23)cc1` [Example 165, N,N-Dimethyl-2-(4-{5-[(7S)-7-{3-oxa-6-azabicyclo[3.1.1]heptan-6-yl}-6,7,8,9-tetrahydro-5H-benzo[7]annulen-2-yl]-1H-pyrrolo[2,3-b]pyridin-3-yl}phenyl)pyridine-3-carboxamide], the IC50 was less than 0.1 µM.

Values taken from patent US12195482B1 (Arcus Biosciences, Inc., priority 2022, dated 2025).
